Assay results published in ChEMBL document CHEMBL1201862, “PubChem BioAssay data set” (2004).
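48-hour exposure; five concentrations; linearly interpolated endpoints. Here, GI50 denotes the concentration required for 50% inhibition of growth.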 The source made the active and inactive calls. No stated cut-off is given here; in the data, active = GI50 up to about 1.1 µM and inactive = higher.

How the values were obtained:
Test in all cases: NCI tumour cell line growth inhibition, 48 h
KM12 = system: KM12
UO-31 = system: UO-31
SK-MEL-28 = system: SK-MEL-28
HCC 2998 = system: HCC 2998
HT-29 = system: HT-29
HCT-116 = system: HCT-116
A549 = system: A549
SF-268 = system: SF-268
SK-MEL-2 = system: SK-MEL-2
PC-3 = system: PC-3
ACHN = system: ACHN
SF-295 = system: SF-295
SNB-19 = system: SNB-19
CCRF-CEM = system: CCRF-CEM
HL-60 = system: HL-60
MDA-MB-435 = system: MDA-MB-435
786-0 = system: 786-0
NCI/ADR-RES = system: NCI/ADR-RES
SW-620 = system: SW-620

| SMILES | GI50 (KM12) | GI50 (UO-31) | GI50 (SK-MEL-28) | GI50 (HCC 2998) | GI50 (HT-29) | GI50 (HCT-116) | GI50 (A549) | GI50 (SF-268) | GI50 (SK-MEL-2) | GI50 (PC-3) | GI50 (ACHN) | GI50 (SF-295) | GI50 (SNB-19) | GI50 (CCRF-CEM) | GI50 (HL-60) | GI50 (MDA-MB-435) | GI50 (786-0) | GI50 (NCI/ADR-RES) | GI50 (SW-620) |
| --- | --- | --- | --- | --- | --- | --- | --- | --- | --- | --- | --- | --- | --- | --- | --- | --- | --- | --- | --- |
| O=C1C(CN2CCCC2)CCCC1CN1CCCC1 (stereo not given) | 19.7 µM (inactive) | 0.791 µM (active) | 3.85 µM (inactive) | 18.3 µM (inactive) | 14.7 µM (inactive) | 1.8 µM (inactive) | 19.8 µM (inactive) | 25.8 µM (inactive) | 18.5 µM (inactive) | 18.2 µM (inactive) | 1.82 µM (inactive) | > 38.7 µM (inactive) | > 100 µM (inactive) | 0.0318 µM (active) | 0.326 µM (active) | 2.76 µM (inactive) | 1.07 µM (active) | 6.1 µM (inactive) | 0.129 µM (active) |
| COc1ccc(/C=C/C(=O)c2cccc(C(=O)/C=C/c3ccc(OC)c(OC)c3)n2)cc1OC | > 55.6 µM (inactive) | 16.4 µM (inactive) | 15.8 µM (inactive) | > 100 µM (inactive) | 7.87 µM (inactive) | 7.96 µM (inactive) | > 100 µM (inactive) | 36.9 µM (inactive) | > 100 µM (inactive) | 29 µM (inactive) | 25.8 µM (inactive) | > 73.8 µM (inactive) | 27 µM (inactive) | 1.05 µM (active) | 1.15 µM (inactive) | > 50.9 µM (inactive) | 11.9 µM (inactive) | 24.8 µM (inactive) | 3.53 µM (inactive) |
| O=C1c2cccnc2C(=O)c2c1nc1ccccc1c2-c1cncc(-c2c3c(nc4ccccc24)C(=O)c2cccnc2C3=O)c1 | 0.212 µM (active) | 0.244 µM (active) | 0.22 µM (active) | 0.359 µM (active) | 0.327 µM (active) | 0.139 µM (active) | 0.37 µM (active) | 0.159 µM (active) | 0.693 µM (active) | 0.303 µM (active) | 0.124 µM (active) | 0.614 µM (active) | 0.22 µM (active) | 0.198 µM (active) | 0.0687 µM (active) | 0.256 µM (active) | 0.0995 µM (active) | 0.253 µM (active) | 0.041 µM (active) |
| ClC1=NSSC1(Cl)Cl | 71.1 µM (inactive) | 26.7 µM (inactive) | > 10 µM (inactive) | > 100 µM (inactive) | 30.5 µM (inactive) | 30.6 µM (inactive) | > 100 µM (inactive) | – | > 100 µM (inactive) | 61.7 µM (inactive) | 20.4 µM (inactive) | 61.5 µM (inactive) | 90.4 µM (inactive) | 6.47 µM (inactive) | 2.4 µM (inactive) | 41.8 µM (inactive) | 23.6 µM (inactive) | 34.8 µM (inactive) | 20.7 µM (inactive) |
| CC1(C)OC(=S)N(c2ccccc2)C12C=Cc1cc3ccccc3cc1O2 (stereo not given) | > 100 µM (inactive) | > 100 µM (inactive) | > 100 µM (inactive) | > 100 µM (inactive) | > 100 µM (inactive) | > 100 µM (inactive) | > 100 µM (inactive) | > 100 µM (inactive) | > 100 µM (inactive) | 44.2 µM (inactive) | > 100 µM (inactive) | > 100 µM (inactive) | > 100 µM (inactive) | > 100 µM (inactive) | 16.6 µM (inactive) | > 100 µM (inactive) | > 100 µM (inactive) | > 100 µM (inactive) | > 100 µM (inactive) |
| Nc1ccc(Nc2c3ccccc3nc3ccccc23)cc1 | 8.05 µM (inactive) | – | > 10 µM (inactive) | > 10 µM (inactive) | 3.49 µM (inactive) | 3.15 µM (inactive) | 3.15 µM (inactive) | > 10 µM (inactive) | 7.87 µM (inactive) | 4.75 µM (inactive) | 1.89 µM (inactive) | 2.62 µM (inactive) | 4.99 µM (inactive) | 2.09 µM (inactive) | 1.8 µM (inactive) | 5.51 µM (inactive) | 3.1 µM (inactive) | 4.9 µM (inactive) | 2.26 µM (inactive) |
| O=Cc1cn(CCCCCCCCCCCCn2cc(C=O)c3ccccc32)c2ccccc12 | – | > 100 µM (inactive) | > 100 µM (inactive) | > 100 µM (inactive) | > 100 µM (inactive) | 2.25 µM (inactive) | 56 µM (inactive) | > 100 µM (inactive) | > 100 µM (inactive) | 33.3 µM (inactive) | 4.88 µM (inactive) | 3.56 µM (inactive) | > 100 µM (inactive) | > 10 µM (inactive) | 1.56 µM (inactive) | 5.22 µM (inactive) | > 100 µM (inactive) | 1.46 µM (inactive) | > 100 µM (inactive) |
